Data reported in patent publication US9278940B2, “Cyclic amines as bromodomain inhibitors” (Zenith Epigenetics Corp., priority 2012, dated 2016).
Counter-ions that a name gives are not always drawn.

How the values were obtained:
[1] = molecular target: T1, Brd4 bromodomain 1 (Homo sapiens, UniProt O60885); test: Inhibition of tetra-acetylated histone H4 binding to BET bromodomain (TR-FRET); design: key: Active: Compounds with an IC50 value less than 30 μM were deemed to be active.; Not Active: Compounds with an IC50 value less than 30 μM were deemed to be active; settings: Brd4 bromodomain 1, tetra-acetylated histone H4 peptide
T1 construct: made in house; host or cells: E. coli BL21(DE3)
Method: Proteins were cloned and overexpressed with a N-terminal 6×His tag, then purified by nickel affinity followed by size exclusion chromatography. Briefly, E. coli BL21(DE3) cells were transformed with a recombinant expression vector encoding N-terminally Nickel affinity tagged bromodomains from Brd2, Brd3, Brd4. Cell cultures were incubated at 37° C. with shaking to the appropriate density and induced overnight with IPTG. The supernatant of lysed cells was loaded onto Ni-IDA column for purification. Eluted protein is pooled, concentrated and further purified by size exclusion chromatography. Fractions representing monomeric protein were pooled, concentrated, aliquoted, and frozen at −80° C. for use in subsequent experiments.
Binding of tetra-acetylated histone H4 and BET bromodomains was confirmed by a Time Resolved Fluorescence Resonance Energy Transfer (TR-FRET) method. N-terminally His-tagged bromodomains (200 nM) and biotinylated tetra-acetylated histone H4 peptide (25-50 nM, Millipore) were incubated in the presence of Europium Cryptate-labeled streptavidin (Cisbio Cat. #610SAKLB) and XL665-labeled monoclonal anti-His antibody (Cisbio Cat. #61HISXLB) in a white 96 well microtiter plate (Greiner). For inhibition assays, serially diluted test compound was added to these reactions in a 0.2% final concentration of DMSO. Final buffer concentrations were 30 mM HEPES pH 7.4, 30 mM NaCl, 0.3 mM CHAPS, 20 mM phosphate pH 7.0, 320 mM KF, 0.08% BSA). After 2 hours incubation at room temperature, the fluorescence by FRET was measured at 665 and 620 nm by a SynergyH4 plate reader (Biotek). The binding inhibitory activity was shown by a decrease in 665 nm fluorescence relative to 620 nm. IC50 values were determined from a dose response curve.

[2] = system: hIL-6 mRNA; test: Inhibition of hIL-6 mRNA transcription in LPS-stimulated U937 macrophages; type: cell-based, human; design: key: Active: Compounds with an IC50 value less than 30 μM are deemed to be active.; Not Active: Compounds with an IC50 value less than 30 μM are deemed to be active; settings: U937 cells differentiated with PMA, 1 h pretreatment, LPS 3 h
Method: In this example, hIL-6 mRNA in tissue culture cells was quantitated to measure the transcriptional inhibition of hIL-6 when treated with a compound of the present disclosure.
A human leukemic monocyte lymphoma cell line (U937) was plated (3.2×10^4 cells per well) in a 96-well plate in […] RPMI-1640 containing 10% FBS and penicillin/streptomycin, and differentiated into macrophages for 3 days in 60 ng/mL PMA ([…]) at 37° C. in 5% CO2 prior to the addition of the compound of interest. The cells were pretreated for 1 h with the test compound prior to stimulation with 1 ug/mL lipopolysaccharide from Escherichia coli. The cells were incubated at 37-C for 3 h before the cells were harvested. At time of harvest, the spent media was removed from the cells and the cells were rinsed in 200 μL PBS. Cell lysis solution (70 μL) was added the cells in each well and incubated for 5-10 min at room temperature, to allow for complete cell lysis and detachment. mRNA was then prepared using the “mRNA Catcher PLUS plate” (Invitrogen), according to the protocol supplied. After the last wash, as much wash buffer as possible was aspirated without allowing the wells to dry. Elution buffer (E3, 70 μL) was then added to each well. mRNA was then eluted by incubating the mRNA Catcher PLUS plate with Elution Buffer for 5 min at 68° C. and then immediately placing the plate on ice.
The eluted mRNA isolated was then used in a one-step quantitative real-time PCR reaction, using components of the Ultra Sense Kit together with Applied Biosystems primer-probe mixes. Real-time PCR data was analyzed, normalizing the Ct values for hIL-6 to an internal control, prior to determining the fold induction of each unknown sample, relative to the control.

[3] = system: c-myc; test: Inhibition of c-myc expression (mRNA, real-time PCR) in MV4-11 cells; type: cell-based; design: key: Active: Compounds with an IC50 value less than 30 μM were deemed to be active.; Not Active: Compounds with an IC50 value less than 30 μM were deemed to be active; settings: Human AML MV4-11 cells, 3 hours
Method: MV4-11 cells (2.5×10^4 cells) were plated in 96 well U-bottom plates with test compound or DMSO (0.1%), and incubated for 3 hours at 37° C. Cells were then harvested by centrifugation, lysed, and mRNA was isolated using the mRNA catcher plus kit (Invitrogen). Reverse transcription of the mRNA and duplex amplification of the c-myc and cyclophilin cDNAs was performed using the RNA Ultrasense kit (Invitrogen) and a ViiA7 real-time PCR machine (Applied Biosystems). IC50 values were determined from a dose response curve.

[4] = system: Human AML MV-4-11 cells; test: Inhibition of cell proliferation in MV4-11 cells; type: cell-based; design: key: Active: Compounds with an IC50 value less than 30 μM are deemed to be active.; Not Active: Compounds with an IC50 value less than 30 μM are deemed to be active; settings: 72 hours
Method: MV4-11 cells: 96-well plates were seeded with 5×10^4 cells per well of exponentially growing human AML MV-4-11 (CRL-9591) cells and immediately treated with two-fold dilutions of test compounds, ranging from 30 μM to 0.2 μM. Triplicate wells were used for each concentration, as well as a media only and three DMSO control wells. The cells and compounds were incubated at 37° C., 5% CO2 for 72 hours before adding 20 μL of the CellTiter Aqueous One Solution (Promega) to each well and incubating at 37° C., 5% CO2 for an additional 3-4 hours. The absorbance was taken at 490 nm in a spectrophotometer and the percentage of proliferation relative to DMSO-treated cells was calculated after correction from the blank well. IC50 were calculated using the GraphPad Prism software.

[5] = system: hApoA-1 mRNA; test: Up-regulation of hApoA-1 mRNA transcription in Huh7 cells; type: cell-based, human; design: key: Active: Compounds with an EC170 value less than 30 μM are deemed to be active.; Not Active: Compounds with an EC170 value less than 30 μM are deemed to be active; settings: 48 hrs treatment, ApoA-I mRNA
Method: In this example, ApoA-I mRNA in tissue culture cells was quantitated to measure the transcriptional up-regulation of ApoA-I when treated with a compound of the present disclosure.
Huh7 cells ([…] per well) were plated in a 96-well plate using 100 μL DMEM per well, (Gibco DMEM supplemented with penicillin/streptomycin and 10% FBS), 24 h before the addition of the compound of interest. After 48 hrs treatment, the spent media was removed from the Huh-7 cells and placed on ice (for immediate use) or at −80° C. (for future use) with the “LDH cytotoxicity assay Kit II” from Abcam. The cells remaining in the plate were rinsed with 100 μL PBS.
Then 85 μL of cell lysis solution was added to each well and incubated for 5-10 minutes at room temperature, to allow for complete cell lysis and detachment. mRNA was then prepared using the “mRNA Catcher PLUS plate” from Life Technologies, according to the protocol supplied. After the last wash, as much wash buffer as possible was aspirated without allowing the wells to dry. Elution Buffer (E3, 80 μL) was then added to each well. mRNA was then eluted by incubating the mRNA Catcher PLUS plate with Elution Buffer for 5 minutes at 68° C., and then 1 minute at 4° C. Catcher plates with mRNA eluted were kept on ice for use or stored at −80° C.
The eluted mRNA isolated was then used in a one-step real-time PCR reaction, using components of the Ultra Sense Kit together with Life Technologies primer-probe mixes. Real-time PCR data was analyzed, using the Ct values, to determine the fold induction of each unknown sample, relative to the control (that is, relative to the control for each independent DMSO concentration).
Compounds with an EC170 value less than 30 μM are deemed to be active.

SMILES | FRET activity (IC50 < 30 μM) [1] | IL-6 activity (IC50 < 30 μM) [2] | c-myc activity (IC50 < 30 μM) [3] | cell proliferation activity (IC50 < 30 μM) [4] | ApoA-1 activity (EC170 < 30 μM) [5]
COc1cc(-c2ccccc2)cc2nc(-c3cccc(N4CCN(C(C)C)CC4)n3)[nH]c(=O)c12 [Example 25, 2-(6-(4-Isopropylpiperazin-1-yl)pyridin-2-yl)-5-methoxy-7-phenylquinazolin-4(3H)-one] | Active | Not Active |  |  | 
COc1cc(OC)c2c(=O)[nH]c(-c3cccc(N4CCN(C)C(=O)C4)n3)nc2c1 [Example 30, 5,7-Dimethoxy-2-(6-(4-methyl-3-oxopiperazin-1-yl)pyridin-2-yl)quinazolin-4(3H)-one] | Not Active | Active | Not Active | Not Active | 
COc1cc(OC)c2c(=O)[nH]c(-c3cc(OC(F)(F)F)cc(N4CCN(C(C)C)CC4)c3)nc2c1 [Example 20, 2-(3-(4-Isopropylpiperazin-1-yl)-5-(trifluoromethoxy)phenyl)-5,7-dimethoxyquinazolin-4(3H)-one] | Active | Active | Not Active | Not Active | 
COc1cc(OCc2ccccc2)cc2nc(-c3cccc(N4CCN(C(C)C)CC4)n3)[nH]c(=O)c12 [Example 22, 7-(Benzyloxy)-2-(6-(4-isopropylpiperazin-1-yl)pyridin-2-yl)-5-methoxyquinazolin-4(3H)-one Hydrochloride] | Active | Active | Active | Active | 
COc1cc(F)cc2nc(-c3cccc(N4CCN(C(C)C)CC4)n3)[nH]c(=O)c12 [Example 21, 7-Fluoro-2-(6-(4-isopropylpiperazin-1-yl)pyridin-2-yl)-5-methoxyquinazolin-4(3H)-one Hydrochloride] | Active | Active | Active | Active | 
COc1cc(OC)c2c(=O)[nH]c(-c3cccc(N4CCN(S(C)(=O)=O)CC4)n3)nc2c1 [Example 18, 5,7-Dimethoxy-2-(6-(4-(methylsulfonyl)piperazin-1-yl)pyridin-2-yl)quinazolin-4(3H)-one Hydrochloride] | Not Active | Not Active |  |  | 
COc1cc(OC)c2c(=O)[nH]c(-c3cccc(N4CCN(C(C)C)CC4=O)n3)nc2c1 [Example 28, 2-(6-(4-Isopropyl-2-oxopiperazin-1-yl)pyridin-2-yl)-5,7-dimethoxyquinazolin-4(3H)-one Hydrochloride] | Not Active |  |  |  | Not Active
COc1cc(OC)c2c(=O)[nH]c(-c3cccc(N4CCN(C(=O)NC(C)C)CC4)n3)nc2c1 [Example 27, 4-(6-(5,7-Dimethoxy-4-oxo-3,4-dihydroquinazolin-2-yl)pyridin-2-yl)-N-isopropylpiperazine-1-carboxamide Hydrochloride] | Active | Active | Active | Active | 
COc1cc(N2CCN(C(C)C)CC2)cc2nc(-c3cccc(N4CCN(C(C)C)CC4)n3)[nH]c(=O)c12 [Example 23, 7-(4-Isopropylpiperazin-1-yl)-2-(6-(4-isopropylpiperazin-1-yl)pyridin-2-yl)-5-methoxyquinazolin-4(3H)-one Hydrochloride] | Active | Not Active | Active | Active | 
COc1ccc(OCc2ccccc2)c2nc(-c3cccc(N4CCN(C(C)C)CC4)c3)[nH]c(=O)c12 [Example 26, 8-(Benzyloxy)-2-(3-(4-isopropylpiperazin-1-yl)phenyl)-5-methoxyquinazolin-4(3H)-one] | Active | Not Active | Not Active | Not Active | 
COc1cc(OC)c2c(=O)[nH]c(-c3cccc(N4CCOCC4)n3)nc2c1 [Example 16, 5,7-Dimethoxy-2-(6-morpholinopyridin-2-yl)quinazolin-4(3H)-one Hydrochloride] | Active | Active | Not Active | Not Active | 
